Article PMC6718736, “Validation of in vitro methods for human cytochrome P450 enzyme induction: Outcome of a multi-laboratory study” (Toxicology in Vitro, 2019)
Where two headings read alike, the source gives them in different places.

Assays:
[1] = cited from earlier work
CYP1A2 [2] = test: CYP1A2 enzyme induction assay in cryopreserved primary human hepatocytes (PHH); format: in vitro ADME; settings: for Assigned classification CYP1A2: PHH;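 on Assigned classification CYP1A2: code 1 means positive inducer and 0 means non-inducer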
[3] = Solubility by nephelometry (EURL ECVAM); format: physicochemical; settings: ECVAM nephelometry, ^2 = solubility limit
Source text: In addition to the visual inspection performed by the validation laboratories as described in the SOP, EURL ECVAM introduced nephelometry for systematic solubility determination of the 13 validation set chemicals. Nephelometry uses a laser beam and the principle of Tyndall effect light scatter to detect turbidity due to insolubility. The nephelometer method used formazin as reference item (1, 5, 10 and 20 nephelometric turbidity units (NTU)) to calculate the relative turbidity (RTU) of the validation set of chemicals. To the naked eye, 20 NTU is perceptible, while the nephelometer was sensitive to 5 NTU, with 1 NTU equivalent to background (solvent/medium blank).

CYP1A2 [4] = settings: cited from earlier work
CYP = CYP isoforms induced; ref Abadie et al. (2009), Richert et al. (2010), Preissner et al. (2010), Hoffmann et al. (2014); cited from earlier work
CYP3A4 [5] = tested on: CYP3A4
CYP2B6 = CYP2B6 enzyme induction assay in cryopreserved primary human hepatocytes (PHH); format: in vitro ADME; settings: for Assigned classification CYP2B6: PHH;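 on Assigned classification CYP2B6: code 1 means positive inducer and 0 means non-inducer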
CYP3A4 [6] = settings: in vivo; cited from earlier work
[7] = Solubility by visual inspection (DMSO stock solution and assay medium); format: physicochemical; settings: assay medium
Protocol: The SOPs relied on visual inspection for solubility observation. […] The absence of precipitation in the medium was checked pre- and post-incubation (24 hours) by centrifugation of the sample and observation of any precipitation (pellet residue).

Compound: CO[C@H]1/C=C/O[C@@]2(C)Oc3c(C)c(O)c4c(c3C2=O)C2=NC3(CCN(CC(C)C)CC3)NC2=C(NC(=O)/C(C)=C\C=C\[C@H](C)[C@H](O)[C@@H](C)[C@@H](O)[C@@H](C)[C@H](OC(C)=O)[C@@H]1C)C4=O [Rifabutin]
- Cmax ([1]; human in vivo plasma concentration, normal dose): 440 nM
- Cmax ([1]; human in vivo, normal dose (Table 10)): 440 nM
- Prediction in vivo inducer (CYP1A2 [2]; CYP1A2, PHH, Cmax/F2 >0.5 criterion): No
- F2 (CYP1A2 [2]; CYP1A2, PHH, in vitro concentration producing 2-fold induction): 2.2 to 6.7 µM
- Induction in vitro (CYP1A2 [2]; CYP1A2, PHH, positive in one donor in each of the three laboratories): Yes
- Assigned classification CYP1A2 (CYP1A2 [2]; Lab 1, batch 0 6 A): 1
- Assigned classification CYP1A2 (CYP1A2 [2]; Lab 1, batch 4 0 8): 1
- Assigned classification CYP1A2 (CYP1A2 [2]; Lab 1, batch 8 0 8): 0
- Assigned classification CYP1A2 (CYP1A2 [2]; Lab 2, batch 0 6 A): 0
- Assigned classification CYP1A2 (CYP1A2 [2]; Lab 2, batch 4 0 8): 0
- Assigned classification CYP1A2 (CYP1A2 [2]; Lab 2, batch 8 0 8): 1
- Assigned classification CYP1A2 (CYP1A2 [2]; Lab 3, batch 0 6 A): 1
- Assigned classification CYP1A2 (CYP1A2 [2]; Lab 3, batch 4 0 8): 0
- Assigned classification CYP1A2 (CYP1A2 [2]; Lab 3, batch 8 0 8): 0
- HepaRG medium stability ([3]; HepaRG medium): 40 µg/mL
- PHH medium stability ([3]; PHH medium): 40 µg/mL
- Induction in vivo (CYP1A2 [4]; CYP1A2, human, ref Table 1): No
- CYP induction in vivo literature reference: CYP1A2 (CYP1A2 [4]; human in vivo, CYP named without remark = induced, ref references in the cell, Washington University database, Hoffmann et al. (2014), Pelkonen et al. (2008), Hukkanen et al. (2012)): CYP1A2 NOT induced ([Gillum et al., 1996]) CYP2B6 NO studies CYP3A4 ([Horita and Doi, 2014]; [Barditch-Crovo et al., 1999])
- CYP induction in vitro (human hepatocytes) (CYP): CYP1A2, CYP3A4
- Induction in vitro (CYP3A4 [5]): Yes
- Prediction in vivo inducer (CYP3A4 [5]): Yes
- Summary predictive capacity, CYP3A4 induction (Y/N) (CYP3A4 [5]; hepatocytes): Y
- Cmax/F2 (CYP3A4 [5]; human): 4.4
- F2 (CYP3A4 [5]; human): 0.1 µM
- F2 (CYP2B6; CYP2B6, PHH): 0.29 to 0.87 µM
- Induction in vitro (CYP2B6; CYP2B6, PHH): induced CYP2B6 and Yes
- Prediction in vivo inducer (CYP2B6; CYP2B6, PHH): Yes
- Assigned classification CYP2B6 (CYP2B6; Lab 1, batch 0 6 A): 1
- Assigned classification CYP2B6 (CYP2B6; Lab 1, batch 4 0 8): 0
- Assigned classification CYP2B6 (CYP2B6; Lab 1, batch 8 0 8): 1
- Assigned classification CYP2B6 (CYP2B6; Lab 2, batch 0 6 A): 0
- Assigned classification CYP2B6 (CYP2B6; Lab 2, batch 4 0 8): 0
- Assigned classification CYP2B6 (CYP2B6; Lab 2, batch 8 0 8): 1
- Assigned classification CYP2B6 (CYP2B6; Lab 3, batch 0 6 A): 1
- Assigned classification CYP2B6 (CYP2B6; Lab 3, batch 4 0 8): 1
- Assigned classification CYP2B6 (CYP2B6; Lab 3, batch 8 0 8): 1
- CYP induction in vivo literature reference: CYP3A4 (CYP3A4 [6]): CYP1A2 NOT induced ([Gillum et al., 1996]) CYP2B6 NO studies CYP3A4 ([Horita and Doi, 2014]; [Barditch-Crovo et al., 1999])
- Induction in vivo (CYP3A4 [6]): Yes
- HepaRG medium stability ([7]; Lab 1, visual observation): 40 µg/mL
- HepaRG medium stability ([7]; Lab 2, visual observation): 20 µg/mL
- HepaRG medium stability ([7]; Lab 3, visual observation): 40 µg/mL
- PHH medium stability ([7]; Lab 4, visual observation): 40 µg/mL
- PHH medium stability ([7]; Lab 5, visual observation): 40 µg/mL
- PHH medium stability ([7]; Lab 6, visual observation): 40 µg/mL
